Laboratory results published in patent publication US10723754B2, “2′,4′-bridged nucleosides for HCV infection” (IDENIX PHARMACEUTICALS LLC, priority 2012, dated 2020).
Read-outs that look alike come from different tables or passages of the source.

How the values were obtained:
[1] = biological target: T1, HCV wild-type genotype 1b NS5B protein (Hepatitis C virus genotype 1b, UniProt Q9WMX2); assay: HCV polymerase enzyme assay, wild-type 1b; assay type: biochemical
T1 construct: approximately 65 kDa HCV genotype 1b NS5B protein; made in house
From the text: (§1) Test compounds in the form of nucleoside triphosphates were examined for inhibitory activity against purified HCV polymerase in a standard assay. Bacterial expression constructs encoding the approximately 65 kDa HCV genotype 1b NS5B protein were used to generate recombinant HCV polymerases (with a deletion of the 21 carboxy terminal amino acids). The wild-type genotype 1b protein, genotype 1b protein containing the S282T mutation, wild-type genotype 1a protein, wild-type genotype 2a protein, wild-type genotype 3a protein and wild-type genotype 4a protein were expressed and purified for use in the enzymatic activity assay.
(§2) The enzymatic activity assay measured the inhibitory effect of increasing concentrations of test compound on the incorporation of α-[^33P]-labeled nucleotide into trichloroacetic acid-precipitable material. Recombinant polymerase and synthetic RNA template were combined in reaction buffer containing ribonucleoside triphosphates, α-[^33P]-labeled nucleotide and eight concentrations of test compound in three-fold dilutions. Reactions were incubated for two hours at 30° C.
(§3) Reactions were terminated by the addition of ice-cold trichloroacetic acid and sodium pyrophosphate to promote precipitation of newly-synthesized ribonucleic acid. Precipitable material from the reactions was collected by filtration onto 96-well filter plates, washed extensively with water, and quantified by liquid scintillation.
(§4) The inhibitory activity of test compounds was determined by fitting results to dose-response curves using XLfit software.

[2] = biological target: T2, HCV genotype 1b NS5B protein containing the S282T mutation (Hepatitis C virus genotype 1b, UniProt Q9WMX2, S2701T); assay: HCV polymerase enzyme assay, S282T 1b; assay type: biochemical
T2 construct: approximately 65 kDa HCV genotype 1b NS5B protein; made in house
From the text: as §1, §2, §3, §4

[3] = tested on: HCV genotype 1b replicon in Huh-7-derived cell line (Zluc); assay: HCV replicon assay (luciferase reporter); assay type: cell-based; conditions: Hepatitis C virus, Zluc cells, 72 hours of incubation
Method: Huh-7-derived cell line (Zluc) that harbors an HCV genotype 1b replicon and a luciferase reporter gene was grown in Dulbecco's Modified Eagle Medium (DMEM) supplemented with 10% fetal bovine serum, 2 mM GlutaMAX, 1% MEM nonessential amino acids, 100 IU/mL penicillin, 100 μg/mL streptomycin, and 0.5 mg/mL Geneticin® (G418). For dose response testing the cells were seeded in 96-well plates at 7.5×10^3 cells per well in a volume of 50 μL, and incubated at 37° C./5% CO2. Drug solutions were made up freshly in Huh-7 media as 2× stocks. Ten additional 5-fold dilutions were prepared from these stocks in DMEM without G418. At least three hours after Zluc cells were seeded, drug treatment was initiated by adding 50 μL of drug dilutions to the plates in duplicate. Final concentrations of drug ranged from 100 μM to […]. Cells were then incubated at 37° C./5% CO2. Alternatively, compounds were tested at two concentrations (1 μM and 10 μM). […] For this, media was removed from the plates via gentle tapping. Fifty microliters of ONE-glo luciferase assay reagent was added to each well. The plates were shaken gently for 3 min at room temperature and luminescence was measured on a Victor^3 V 1420 multilabel counter (Perkin Elmer) with a 1 second read time using a 700 nm cut-off filter. The EC50 values were calculated from dose response curves from the resulting best-fit equations determined by Microsoft Excel and XLfit 4.1 software. When screening at two fixed concentrations, the results were expressed as % inhibition at 1 μM and 10 μM.

[4] = in vitro; conditions: human
[5] = Cytotoxicity evaluation (CellTiter-Blue Cell Viability Assay); conditions: human
[6] = biological target: T3, HCV polymerase wild-type genotype 1a protein (Hepatitis C virus genotype 1a, UniProt P27958); assay: HCV polymerase enzyme assay, wild-type 1a; assay type: biochemical
T3 construct: used to generate recombinant HCV polymerases; made in house
From the text: as §1
(§5) The enzymatic activity assay measured the inhibitory effect of increasing concentrations of test compound on the incorporation of α-[^33P]-labeled nucleotide into trichloroacetic acid-precipitable material. […]
as §3, §4

[7] = biological target: T4, HCV polymerase wild-type genotype 2a protein (Hepatitis C virus genotype 2a, UniProt Q99IB8); assay: HCV polymerase enzyme assay, wild-type 2a; assay type: biochemical; conditions: purified recombinant polymerase; compounds as nucleoside triphosphates
T4 construct: used to generate recombinant HCV polymerases; made in house
From the text: as §1, §5, §3, §4

[8] = biological target: T5, HCV polymerase wild-type genotype 3a protein (Hepatitis C virus genotype 3a, UniProt Q81258); assay: HCV polymerase enzyme assay, wild-type 3a; assay type: biochemical; conditions: purified recombinant polymerase; compounds as nucleoside triphosphates
T5 construct: used to generate recombinant HCV polymerases; made in house
From the text: as §1, §5, §3, §4

[9] = biological target: T6, HCV polymerase wild-type genotype 4a protein (Hepatitis C virus genotype 4a, UniProt O39929); assay: HCV polymerase enzyme assay, wild-type 4a; assay type: biochemical; conditions: purified recombinant polymerase; compounds as nucleoside triphosphates
T6 construct: used to generate recombinant HCV polymerases; made in house
From the text: as §1, §5, §3, §4

[10] = purified recombinant polymerase, compounds as nucleoside triphosphates, read-out: S282T 1b IC50

T3 sequence (P27958 2421-2990): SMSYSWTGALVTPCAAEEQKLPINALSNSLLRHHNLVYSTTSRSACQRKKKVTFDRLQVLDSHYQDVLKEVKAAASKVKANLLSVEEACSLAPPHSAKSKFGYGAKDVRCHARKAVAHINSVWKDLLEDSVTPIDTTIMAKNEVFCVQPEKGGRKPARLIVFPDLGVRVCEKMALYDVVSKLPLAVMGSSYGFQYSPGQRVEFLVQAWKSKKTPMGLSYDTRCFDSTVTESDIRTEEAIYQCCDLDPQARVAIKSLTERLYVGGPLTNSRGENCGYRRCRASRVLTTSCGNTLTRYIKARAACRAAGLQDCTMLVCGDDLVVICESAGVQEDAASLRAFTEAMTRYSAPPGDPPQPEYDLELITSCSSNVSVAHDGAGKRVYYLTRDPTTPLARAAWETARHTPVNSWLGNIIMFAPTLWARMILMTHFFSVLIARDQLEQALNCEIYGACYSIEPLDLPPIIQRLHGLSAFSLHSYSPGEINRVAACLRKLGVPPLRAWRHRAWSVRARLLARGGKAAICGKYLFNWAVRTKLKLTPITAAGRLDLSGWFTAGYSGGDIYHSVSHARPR
T6 sequence (O39929 2418-2987): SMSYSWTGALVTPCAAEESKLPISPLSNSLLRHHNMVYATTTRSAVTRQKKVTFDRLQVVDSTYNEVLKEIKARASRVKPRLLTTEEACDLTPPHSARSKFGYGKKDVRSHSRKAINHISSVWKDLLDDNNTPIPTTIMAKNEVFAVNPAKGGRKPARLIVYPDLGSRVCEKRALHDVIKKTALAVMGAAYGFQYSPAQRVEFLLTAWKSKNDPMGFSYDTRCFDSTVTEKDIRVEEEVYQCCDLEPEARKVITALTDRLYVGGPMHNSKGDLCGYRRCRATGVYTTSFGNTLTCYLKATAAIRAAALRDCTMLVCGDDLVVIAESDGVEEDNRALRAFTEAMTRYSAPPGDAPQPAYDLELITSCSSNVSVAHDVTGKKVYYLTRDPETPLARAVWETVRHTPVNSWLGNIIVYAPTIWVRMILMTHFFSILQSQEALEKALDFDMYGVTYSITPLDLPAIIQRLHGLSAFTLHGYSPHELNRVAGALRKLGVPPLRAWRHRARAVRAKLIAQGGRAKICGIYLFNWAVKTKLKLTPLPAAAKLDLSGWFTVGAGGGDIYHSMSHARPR
T5 sequence (Q81258 2431-3000): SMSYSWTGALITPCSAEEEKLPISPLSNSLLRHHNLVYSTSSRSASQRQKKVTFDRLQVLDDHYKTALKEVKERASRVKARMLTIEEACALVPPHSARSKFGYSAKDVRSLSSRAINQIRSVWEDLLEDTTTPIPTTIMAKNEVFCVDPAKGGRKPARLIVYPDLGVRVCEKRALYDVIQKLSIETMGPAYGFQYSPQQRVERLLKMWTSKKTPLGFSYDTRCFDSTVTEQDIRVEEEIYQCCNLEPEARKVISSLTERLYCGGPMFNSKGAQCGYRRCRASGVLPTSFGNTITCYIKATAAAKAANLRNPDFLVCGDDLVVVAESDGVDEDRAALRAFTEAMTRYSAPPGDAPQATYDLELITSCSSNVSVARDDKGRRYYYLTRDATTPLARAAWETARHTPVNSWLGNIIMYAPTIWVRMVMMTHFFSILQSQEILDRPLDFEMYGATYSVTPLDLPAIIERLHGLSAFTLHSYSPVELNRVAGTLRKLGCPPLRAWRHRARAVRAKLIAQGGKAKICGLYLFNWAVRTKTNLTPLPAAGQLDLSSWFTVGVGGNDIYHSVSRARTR

Compound	IC50 [1] [µM]	IC50 [2, 10] [µM]	also measured
C[C@H]1O[C@H]2[C@H](n3cnc4c(=O)[nH]c(N)nc43)O[C@]1(COP(=O)(O)OP(=O)(O)OP(=O)(O)O)[C@H]2O [Compound 426]	> 10		
Nc1ccn([C@@H]2O[C@@]3(COP(=O)(O)OP(=O)(O)OP(=O)(O)O)CO[C@@H]2[C@@H]3O)c(=O)n1 [Compound 107]	1 to 10	1 to 10	
CC(OP(=O)(O)OP(=O)(O)OP(=O)(O)O)C12COC(C(n3cnc4c(=O)[nH]c(N)nc43)O1)C2O (single isomer, unassigned) [Compound 102 Diastereomer 2]	> 10	> 10	
[N-]=[N+]=N[C@H]1[C@H]2OC[C@]1(COP(=O)(O)OP(=O)(O)OP(=O)(O)O)O[C@H]2n1ccc(=O)[nH]c1=O [Compound 401]	> 10		
Nc1nc2c(ncn2[C@@H]2O[C@@]3(CO)CN[C@@H]2[C@@H]3O)c(=O)[nH]1 [Compound 38]			EC50 [3]: > 10 µM; CC50 at 72 h [4]: > 50 µM
CCOc1nc(N)nc2c1ncn2[C@@H]1O[C@@]2(COP(=O)(N[C@@H](C)C(=O)OC(C)C)Oc3ccccc3)CO[C@@H]1[C@@H]2O (some centres unmarked) [Compound 25]	0.25 to 1		IC50 [2]: 0.25 to 1 µM
Nc1nc2c(ncn2[C@@H]2O[C@@]3(COP(=O)(O)OP(=O)(O)OP(=O)(O)O)CN[C@@H]2[C@@H]3O)c(=O)[nH]1 [Compound 570]	> 10		
[N-]=[N+]=N[C@H]1[C@H]2OC[C@]1(CO)O[C@H]2n1ccc(=O)[nH]c1=O [Compound 33]			EC50 [3]: > 10 µM; CC50 at 72 h [5]: > 50 µM
N[C@H]1[C@H]2OC[C@]1(COP(=O)(O)OP(=O)(O)OP(=O)(O)O)O[C@H]2n1ccc(=O)[nH]c1=O [Compound 571]	> 10		
C[C@H]1O[C@H]2[C@H](n3ccc(=O)[nH]c3=O)O[C@]1(COP(=O)(O)OP(=O)(O)OP(=O)(O)O)[C@H]2O [Compound 427]	> 10		
Nc1ncnc2c1ncn2[C@@H]1O[C@@]2(COP(=O)(O)OP(=O)(O)OP(=O)(O)O)CO[C@@H]1[C@@H]2O [Compound 101]	> 10	> 10	
COC(=O)N[C@H]1[C@H]2OC[C@]1(CO)O[C@H]2n1ccc(=O)[nH]c1=O [Compound 37]			EC50 [3]: > 10 µM; CC50 at 72 h [5]: > 50 µM
C[C@]12OC[C@](COP(=O)(O)OP(=O)(O)OP(=O)(O)O)(O[C@H]1n1cnc3c(=O)[nH]c(N)nc31)[C@H]2O [Compound 106]	< 0.25	0.25 to 1	
C[C@@H](OP(=O)(O)OP(=O)(O)OP(=O)(O)O)[C@@]12CO[C@@H]([C@H](n3ccc(=O)[nH]c3=O)O1)[C@@H]2O [Compound 104b]	> 10	> 10	
CC(=O)N[C@H]1[C@H]2OC[C@]1(CO)O[C@H]2n1ccc(=O)[nH]c1=O [Compound 35]			EC50 [3]: > 10 µM; CC50 at 72 h [5]: > 50 µM
C[C@H](OP(=O)(O)OP(=O)(O)OP(=O)(O)O)[C@@]12CO[C@@H]([C@H](n3ccc(=O)[nH]c3=O)O1)[C@@H]2O [Compound 104a]	> 10	> 10	
Nc1nc2c(ncn2[C@@H]2O[C@@]3(COP(=O)(O)OP(=O)(O)OP(=O)(O)O)CO[C@@H]2[C@@H]3O)c(=O)[nH]1 [Compound 103]	0.25 to 1	0.25 to 1	IC50 [6]: 0.25 to 1 µM; IC50 [7]: 0.25 to 1 µM; IC50 [8]: < 0.25 µM; IC50 [9]: 0.25 to 1 µM
CS(=O)(=O)N[C@H]1[C@H]2OC[C@]1(CO)O[C@H]2n1ccc(=O)[nH]c1=O [Compound 36]			EC50 [3]: > 10 µM; CC50 at 72 h [5]: > 50 µM
O=c1ccn([C@@H]2O[C@@]3(COP(=O)(O)OP(=O)(O)OP(=O)(O)O)CO[C@@H]2[C@@H]3O)c(=O)[nH]1 [Compound 108]	1 to 10	> 10	
CC(OP(=O)(O)OP(=O)(O)OP(=O)(O)O)C12COC(C(n3cnc4c(=O)[nH]c(N)nc43)O1)C2O (single isomer, unassigned) [Compound 102 Diastereomer 1]		> 10	
